Assay results taken from PubChem BioAssay (NCI).
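Assay format: 96-well plates, 48-hour exposure. At the GI50, growth is halved. TGI denotes the concentration required for complete inhibition of growth.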

Assays:
Test in all cases: NCI-60 cell line screen, 48 h
CAKI-1 renal = tested on: CAKI-1 renal
OVCAR-4 ovarian = tested on: OVCAR-4 ovarian
SK-OV-3 ovarian = tested on: SK-OV-3 ovarian
UACC-62 melanoma = tested on: UACC-62 melanoma
HCT-116 colon = tested on: HCT-116 colon
HT29 colon = tested on: HT29 colon
KM12 colon = tested on: KM12 colon
OVCAR-3 ovarian = tested on: OVCAR-3 ovarian
RPMI-8226 leukemia = tested on: RPMI-8226 leukemia
U251 CNS = tested on: U251 CNS

Structure (SMILES)	GI50 (CAKI-1 renal)	TGI (CAKI-1 renal)	GI50 (OVCAR-4 ovarian)	TGI (OVCAR-4 ovarian)	GI50 (SK-OV-3 ovarian)	TGI (SK-OV-3 ovarian)	GI50 (UACC-62 melanoma)	TGI (UACC-62 melanoma)	GI50 (HCT-116 colon)	TGI (HCT-116 colon)	GI50 (HT29 colon)	TGI (HT29 colon)	GI50 (KM12 colon)	TGI (KM12 colon)	GI50 (OVCAR-3 ovarian)	TGI (OVCAR-3 ovarian)	GI50 (RPMI-8226 leukemia)	TGI (RPMI-8226 leukemia)	GI50 (U251 CNS)	TGI (U251 CNS)
N=C(N)c1ccc(-c2ccc(-c3ccccc3)s2)cc1	1.58 µM	2.92 µM	1.59 µM	3.21 µM	2.42 µM	7.27 µM	1.75 µM	3.42 µM												
O=[N+]([O-])c1ccccc1NC1c2ccccc2Oc2ccccc21	11 µM	> 100 µM	8.21 µM	> 100 µM			2.94 µM	> 100 µM	4.08 µM	> 100 µM	3.83 µM	> 100 µM	4.34 µM	> 100 µM	3.64 µM	> 100 µM	5.86 µM	> 100 µM	4.88 µM	> 100 µM
C=C1C(=O)OC2/C=C(/C)C3CC(O)C(C)(CC(OC(=O)/C(C)=C/C)C12)O3 (stereo unspecified)		4.86 µM		20.6 µM		> 65.2 µM		5.22 µM		3.08 µM		13.1 µM		11.3 µM		14.2 µM		> 22.4 µM		25.3 µM
O=C1C=CC2=[N+]([O-])C(c3ccccc3)(c3ccccc3)C(=Nc3ccccc3)C2=C1		6.33 µM		3.28 µM		31.8 µM		4.51 µM		3.92 µM		5.63 µM				3.37 µM		7.83 µM		7.32 µM
COc1cc(/C=C/c2cc(/C=C/c3ccc(O)c(OC)c3)nc(N)n2)ccc1O	2.23 µM	6.46 µM	1.71 µM	11.5 µM	2.6 µM	8.23 µM			1.1 µM	2.39 µM	0.314 µM	0.948 µM	1.63 µM	3.32 µM	2.65 µM	8.62 µM	1.29 µM	4.18 µM	1.79 µM	5.69 µM
CCNc1nnc(-c2nsc3ccccc23)s1				> 100 µM				> 100 µM		75.2 µM		93.3 µM		> 100 µM		57.6 µM		> 100 µM		> 100 µM
Cc1ccc([N+](=O)[O-])cc1S(=O)(=O)Nc1ccc(C2=NNC(c3ccccc3O)C2)cc1 (stereo unspecified)		> 100 µM		63.8 µM		> 100 µM		41.6 µM		60.8 µM		> 100 µM		76.7 µM		43.7 µM		> 100 µM		
CN1CCCCC(C#N)(c2ccccc2)CC1 (stereo unspecified)		> 100 µM		> 100 µM		> 100 µM				> 100 µM		> 100 µM		> 100 µM				> 100 µM		> 100 µM
C=C1C(=O)C[C@@]23CCC[C@@]12CC(OCOC)C3 (stereo partly specified)		6.94 µM		5.66 µM		17.8 µM		7.62 µM		6 µM		4.41 µM		9.48 µM		6.48 µM		9.8 µM		21 µM
Nc1nc(Cl)cc(OCC2(CO)CC(OCc3ccccc3)C2)n1 (stereo unspecified)	48.2 µM		47.9 µM		61.2 µM		77.1 µM		64 µM		33.9 µM		55.5 µM		47.1 µM		26.7 µM		55 µM	
CC(C)CCC[C@@H](C)C1CCC2[C@@H]3CC=C4C[C@@H](C(=O)NCC[N+](C)(C)CCCS(=O)(=O)[O-])CC[C@]4(C)C3CC[C@@]21C (stereo partly specified)		27.2 µM		35.9 µM		30.9 µM		34.7 µM		30.9 µM		33 µM		31.5 µM		30 µM		41.5 µM		31.2 µM
COC(=O)c1cccc(N[C@@H]2c3cc4c(cc3C(c3cc(OC)c(O)c(OC)c3)[C@H]3C(=O)OCC32)OCO4)c1 (stereo partly specified)		2.91 µM		> 100 µM		23.6 µM		8.28 µM		21.9 µM		16 µM		10.2 µM		33.7 µM		> 20.2 µM		12.2 µM
CC(=O)Oc1ccc2c(c1)oc1c3ccc(OC(C)=O)cc3n(C)c(=O)c21						> 100 µM		> 100 µM		48.7 µM		> 100 µM		20.6 µM		> 100 µM				> 100 µM
CCN(CC)CCCNc1ncc(C)c2[nH]c3ccncc3c12				13.8 µM		15.9 µM		28.2 µM		30.3 µM		26.2 µM		42 µM		56.3 µM		> 100 µM		30.6 µM
Cc1cc(C)c2c(c1)CC1(Cc3c(C)ccc(C)c3C1=O)C2=O (stereo unspecified)		> 100 µM		> 100 µM				> 100 µM						> 100 µM		> 100 µM		> 100 µM		> 100 µM
S=P1(N2CCCCC2)Oc2ccc3ccccc3c2-c2c(ccc3ccccc23)O1		> 100 µM		97.6 µM		> 100 µM		> 100 µM		> 100 µM		> 100 µM		> 100 µM		> 88.3 µM		> 100 µM		> 100 µM
